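Values below derive from 48-hour exposures of cells grown in 96-well plates, with endpoints linearly interpolated between the two concentrations bracketing the appropriate inhibition level. At the TGI there is no net growth.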
Assays:
Experiment in all cases: growth of human tumour cells (NCI), 48 h
[1] = tested on: HL-60(TB) leukemia
[2] = tested on: OVCAR-5 ovarian
[3] = tested on: M14 melanoma
[4] = tested on: SF-268 CNS
[5] = tested on: SNB-19 CNS
[6] = tested on: NCI-H23 lung
[7] = tested on: NCI-H522 lung
[8] = tested on: SW-620 colon
[9] = tested on: 786-0 renal
[10] = tested on: A549 NSCLC
[11] = tested on: HT29 colon
[12] = tested on: LOX IMVI melanoma
[13] = tested on: HOP-92 NSCLC
[14] = tested on: DU-145 prostate
[15] = tested on: MOLT-4 leukemia
[16] = tested on: HCT-116 colon
[17] = tested on: SK-MEL-2 melanoma
[18] = tested on: A498 renal
[19] = tested on: HCC-2998 colon

Row | Structure (SMILES) | TGI [1] [µM] | TGI [2] [µM] | TGI [3] [µM] | TGI [4] [µM] | TGI [5] [µM] | TGI [6] [µM] | TGI [7] [µM] | TGI [8] [µM] | TGI [9] [µM] | TGI [10] [µM] | TGI [11] [µM] | TGI [12] [µM] | TGI [13] [µM] | TGI [14] [µM] | TGI [15] [µM] | TGI [16] [µM] | TGI [17] [µM] | TGI [18] [µM] | TGI [19] [µM]
1 | Cc1ccc(S(=O)(=O)N/N=C2/CCC3(O)CC2(C)CCC2[C@H]3CC2(C)C)cc1 (stereo not given in full) | > 100 | 78.1 | > 100 | > 100 | > 100 | 83.5 | 91.9 | > 100 | > 100 | > 100 | 99.5 | 28.6 | 87.6 | > 100 | 45.2 | 75.7 | 69.2 | – | –
2 | Cc1cc(NS(=O)(=O)c2ccc(N=[N+]([O-])c3ccc(S(=O)(=O)Nc4cc(C)on4)cc3)cc2)no1 | > 100 | > 100 | > 100 | > 100 | > 100 | > 100 | > 100 | – | > 100 | > 100 | > 100 | > 100 | > 100 | > 100 | > 100 | > 100 | > 100 | > 100 | –
3 | CC(=O)N1C(Nc2nccs2)CCN1c1ccccc1 (stereo not given) | > 10 | > 10 | > 10 | > 10 | > 10 | > 10 | – | > 10 | > 10 | > 10 | > 10 | > 10 | > 10 | > 10 | > 10 | > 10 | > 10 | – | > 10
4 | CCCCCCCCCCCCCCCCNC(=O)/C(=C\c1ccc(Cl)c(Cl)c1)NC(=O)c1ccccc1 | 22 | > 100 | > 100 | > 100 | > 100 | 52.6 | > 100 | > 100 | 47.4 | > 100 | > 100 | 54.2 | 34.7 | 70.7 | 37.5 | > 100 | > 100 | 35.5 | –
5 | Nc1ccccc1C(=O)N=Nc1c(O)[nH]c2ccccc12 | – | > 100 | > 100 | > 100 | > 100 | > 100 | > 100 | – | > 100 | > 100 | > 100 | – | – | > 100 | > 100 | > 100 | > 100 | > 100 | > 100
6 | Cc1nn(C(=O)c2ccncc2)c2c1C(c1ccccc1[N+](=O)[O-])SC(N)=N2 (stereo not given) | > 10 | > 10 | > 10 | > 10 | > 10 | > 10 | – | > 10 | > 10 | > 10 | > 10 | > 10 | > 10 | > 10 | > 10 | > 10 | > 10 | – | > 10
7 | C=C1C(=O)O[C@H]2C1C[C@H](O)[C@@]1(C)OC1CC[C@@]1(C)O[C@H]21 (stereo not given in full) | – | 31.5 | 30.6 | 95.7 | – | 39.2 | 11.9 | 33.2 | 37.1 | > 100 | > 100 | – | 36.5 | > 100 | 29.8 | 30.2 | 55.3 | – | 28.5
8 | O=C(Nc1ccccc1)OCCN=C1c2ccccc2CCc2ccccc21 | 42.2 | 63.5 | 45.1 | 75.4 | 43.7 | > 100 | – | > 100 | > 100 | > 100 | 37 | 49.4 | – | 91.3 | 31.1 | 30 | 30.3 | – | 45.9
9 | CC(C)OP(=O)(OC(C)C)C(C)(C)O | > 100 | > 100 | > 100 | > 100 | > 100 | > 100 | > 100 | > 100 | > 100 | > 100 | > 100 | > 100 | > 100 | > 100 | > 100 | > 100 | > 100 | – | > 100
10 | CCCc1nc2c(n1CC)C(=O)c1ccccc1C2=O | > 100 | > 100 | 94 | > 100 | > 100 | > 100 | > 100 | > 100 | > 100 | > 100 | 53.3 | – | – | > 100 | > 100 | > 100 | – | – | > 100
11 | CC1=CCC(C(C)(C)NC(=O)c2ccccc2)C/C1=N/O (stereo not given) | > 100 | > 100 | > 100 | > 100 | > 100 | > 100 | > 100 | > 100 | > 100 | > 100 | > 100 | > 100 | > 100 | > 100 | > 100 | > 100 | – | – | > 100
12 | Cn1nnc2c3c(N(CCO)CCO)ccnc3ccc21 | – | > 100 | > 100 | > 100 | > 100 | > 100 | – | > 100 | > 100 | > 100 | > 100 | > 100 | – | > 100 | > 100 | > 100 | > 100 | – | 91.2
13 | Cc1ccc(C(=O)Oc2ccccc2)cc1N=NN(C)C | > 100 | > 100 | > 100 | > 100 | > 100 | > 100 | > 100 | > 100 | > 100 | > 100 | > 100 | > 100 | > 100 | > 100 | > 100 | > 100 | > 100 | – | > 100
14 | COc1cc(C2c3cc4c(cc3C(=O)C3CCC(=O)N32)OCO4)cc(OC)c1O (stereo not given) | > 50 | > 50 | > 50 | – | > 50 | > 50 | – | > 50 | > 50 | > 50 | > 50 | – | > 50 | > 50 | > 50 | > 50 | > 50 | > 50 | –

Source: PubChem BioAssay (NCI)
